Experimental data as given in patent US10131642B1, “Aldosterone synthase inhibitors” (Boehringer Ingelheim International GmbH, priority 2015, dated 2018).

What was measured:
[1] = target: T1, aldosterone synthase (CYP11B2) (Macaca fascicularis, UniProt A0A2K5UPL9); assay: Inhibition of aldosterone synthase (cynomolgus adrenal mitochondria, aldosterone by mass spectrometry); type: biochemical, cynomolgus monkey; settings: cynomolgus adrenal gland mitochondria, 2 μM corticosterone substrate, 90 minutes at 37° C.
T1 construct: cynomolgus adrenal gland mitochondria as the source of aldosterone synthase (CYP11B2); from tissue; host or cells: cynomolgus monkey adrenal gland mitochondria
T1 sequence (A0A2K5UPL9 1-503): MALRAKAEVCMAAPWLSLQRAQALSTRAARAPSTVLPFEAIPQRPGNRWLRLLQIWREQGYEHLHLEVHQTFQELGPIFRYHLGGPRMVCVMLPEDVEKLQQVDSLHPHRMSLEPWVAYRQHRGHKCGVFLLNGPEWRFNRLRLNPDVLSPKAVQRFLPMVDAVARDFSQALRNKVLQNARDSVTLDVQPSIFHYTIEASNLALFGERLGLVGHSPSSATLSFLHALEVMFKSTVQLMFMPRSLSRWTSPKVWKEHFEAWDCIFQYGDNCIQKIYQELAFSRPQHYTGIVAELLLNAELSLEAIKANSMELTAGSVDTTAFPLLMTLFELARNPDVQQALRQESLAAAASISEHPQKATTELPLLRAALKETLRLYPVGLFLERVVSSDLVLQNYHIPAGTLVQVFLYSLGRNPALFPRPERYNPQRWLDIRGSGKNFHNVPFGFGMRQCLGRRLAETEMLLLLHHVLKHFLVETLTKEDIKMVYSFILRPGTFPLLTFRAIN
Protocol: (§1) The aldosterone synthase and cortisol synthase inhibition assays employ cynomolgus adrenal gland mitochondria as the source of aldosterone synthase (CYP11B2) and cortisol synthase (CYP11B1). Mitochondria are prepared from frozen cynomolgus monkey adrenal glands according to Method A described in by J. D. McGarry et al. (Biochem. J., 1983, 214, 21-28), with a final resuspension in the AT buffer described in R. Yamaguchi et al. (Cell Death and Differentiation, 2007, 14, 616-624), frozen as aliquots in liquid nitrogen and stored at −80° C. until use. Activity of CYP11B2 and CYP11B1 in these preparations is defined as the amount of enzyme that generates 1 pmol of product in one hour under the conditions described.
Assays are performed in 96-well format in a final volume of 60 µL/well, containing 100 mM potassium phosphate, pH 7.4, 1% (v/v) DMSO, and additionally, 2 μM of corticosterone and 50 units of CYP11B2 activity. Reactions are started by the addition of NADPH to 1 mM and allowed to proceed for 90 minutes at 37° C. Reactions are terminated by the addition of 60 μL of MeCN containing an internal standard for mass spectrometry. One hundred microliters are then transferred to a glass filter plate and centrifuged at 570×g for 5 minutes and the filtrate is collected. Reaction product aldosterone is quantified by mass spectrometry. To determine the assay blank value (0% activity), NADPH is omitted from some reactions.
Dose dependent inhibition is quantified by the inclusion of compound at various concentrations. Maximum activity (100%) is defined by reactions containing NADPH, but without compound. Activities at each concentration are expressed as a percentage of the maximum activity (y-axis) and plotted against concentration of compound (x-axis) and the concentration corresponding to 50% activity (IC50) determined using the XLFit curve-fitting program using a 4-parameter logistic model.

[2] = target: cortisol synthase (CYP11B1) (Macaca fascicularis, UniProt A0A2K5ULY1); assay: Inhibition of cortisol synthesis (cynomolgus adrenal mitochondria, cortisol by mass spectrometry); type: biochemical, cynomolgus monkey; settings: cynomolgus adrenal gland mitochondria, 11-deoxycortisol as substrate, cortisol measured as product; read-out: CYP11B1 Inhibition IC50
Protocol: as §1, with “described. Dose dependent inhibition is quantified by the inclusion of compound at various concentrations. Maximum activity (100%) is defined by reactions containing NADPH, but without compound. Activities at each concentration are expressed as a percentage of the maximum activity (y-axis) and plotted against concentration of compound (x-axis) and the concentration corresponding to 50% activity (IC50) determined using the XLFit curve-fitting program using a 4-parameter logistic model. Assays are performed as for aldosterone synthase except for the use of 150 units of CYP11B1, 11-deoxycortisol as substrate and cortisol measured as product.” for “described.”

IC50 [1] [µM]	IC50 [2] [µM]	Structure (SMILES)
0.059	3.4	CC1(C)CC(=O)c2c(noc2Cc2ccc(OCCCS(C)(=O)=O)cc2)C1 [Cpd 27, 3-[4-(3-Methanesulfonyl-propoxy)-benzyl]-6,6-dimethyl-6,7-dihydro-5H-benzo[c]isoxazol-4-one]
0.065	4.9	N#Cc1ccc(Cc2onc3c2C(=O)CC(Cc2ccccc2)C3)cc1 (stereo not shown) [Cpd 28, 4-(6-Benzyl-4-oxo-4,5,6,7-tetrahydro-benzo[c]isoxazol-3-ylmethyl)-benzonitrile]
0.073	7.4	CC1(C)CC(=O)c2c(noc2Cc2ccc(OCCS(C)(=O)=O)cc2)C1 [Cpd 29, 3-[4-(2-Methanesulfonyl-ethoxy)-benzyl]-6,6-dimethyl-6,7-dihydro-5H-benzo[c]isoxazol-4-one]
0.074	14	N#Cc1ccc(Cc2onc3c2C(=O)CC(CC2CC2)C3)cc1 (stereo not shown) [Cpd 30, 4-(6-Cyclopropylmethyl-4-oxo-4,5,6,7-tetrahydro-benzo[c]isoxazol-3-ylmethyl)-benzonitrile]
0.084	7.4	CC1(C)CC(=O)c2c(noc2Cc2cccc(F)c2)C1 [Cpd 31, 3-(3-Fluoro-benzyl)-6,6-dimethyl-6,7-dihydro-5H-benzo[c]isoxazol-4-one]
0.092	4.1	CC1(C)CC(=O)c2c(noc2Cc2ccc(Br)cc2)C1 [Cpd 33, 3-(4-Bromo-benzyl)-6,6-dimethyl-6,7-dihydro-5H-benzo[c]isoxazol-4-one]
0.12	25	COc1ccc(Cc2onc3c2C(=O)CC(C)(C)C3)cc1C#N [Cpd 34, 5-(6,6-Dimethyl-4-oxo-4,5,6,7-tetrahydro-benzo[c]isoxazol-3-ylmethyl)-2-methoxy-benzonitrile]
0.16	5.2	CC1(C)CC(=O)c2c(noc2Cc2ccc3c(c2)NC(=O)CO3)C1 [Cpd 35, 6-(6,6-Dimethyl-4-oxo-4,5,6,7-tetrahydro-benzo[c]isoxazol-3-ylmethyl)-4H-benzo[1,4]oxazin-3-one]
0.2	7.6	CC1CC(=O)c2c(noc2Cc2ccc(C#N)cc2)C1 (stereo not shown) [Cpd 36, 4-(6-Methyl-4-oxo-4,5,6,7-tetrahydro-benzo[c]isoxazol-3-ylmethyl)-benzonitrile]
0.074	11	CC1(C)CC(=O)c2c(noc2Cc2ccc(C#N)c(F)c2)C1 [Cpd 37, 4-(6,6-Dimethyl-4-oxo-4,5,6,7-tetra hydro-benzo[c]isoxazol-3-ylmethyl)-2-fluoro-benzonitrile]
0.055	1	N#Cc1ccc(Cc2onc3c2C(=O)CC2(CCC2)C3)cc1 [Cpd 38, 4-(-6,6-spiro-cyclobutyl-4-oxo-4,5,6,7-tetrahydro-benzo[c]isoxazol-3-ylmethyl)-benzonitrile]
> 1	> 100	CC1(C)CC(=O)c2c(noc2Cc2ccc(C(=O)O)cc2)C1 [Cpd 40, 4-(6,6-Dimethyl-4-oxo-4,5,6,7-tetrahydro-benzo[c]isoxazol-3-ylmethyl)-benzoic acid]
0.66	20	CC1CC(=O)c2c(noc2Cc2ccc(C(=O)O)cc2)C1 (stereo not shown) [Cpd 41, 4-(6-Methyl-4-oxo-4,5,6,7-tetrahydro-benzo[c]isoxazol-3-ylmethyl)-benzoic acid]
0.18	> 100	O=C(O)c1ccc(Cc2onc3c2C(=O)CC(Cc2ccccc2)C3)cc1 (stereo not shown) [Cpd 42, 4-(6-Benzyl-4-oxo-4,5,6,7-tetrahydro-benzo[c]isoxazol-3-ylmethyl)-benzoic acid]
0.42	64	O=C(O)c1ccc(Cc2onc3c2C(=O)CC(CC2CC2)C3)cc1 (stereo not shown) [Cpd 45, 4-(6-Cyclopropylmethyl-4-oxo-4,5,6,7-tetrahydro-benzo[c]isoxazol-3-ylmethyl)-benzoic acid]
0.13	5.8	CC1(C)CC(=O)c2c(noc2Cc2ccc(C(=O)N3CC[C@@H](O)C3)cc2)C1 [Cpd 46, 3-[4-((R)-3-Hydroxy-pyrrolidine-1-carbonyl)-benzyl]-6,6-dimethyl-6,7-dihydro-5H-benzo[c]isoxazol-4-one]
0.02	0.13	CC(C)C1CC(=O)c2c(noc2Cc2ccc(OCCCS(C)(=O)=O)cc2)C1 (stereo not shown) [Cpd 47, 6-Isopropyl-3-[4-(3-methanesulfonyl-propoxy)-benzyl]-6,7-dihydro-5H-benzo[c]isoxazol-4-one]
0.046	0.67	CC1CC(=O)c2c(noc2Cc2ccc(OCCCS(C)(=O)=O)cc2)C1 (stereo not shown) [Cpd 48, 3-[4-(3-Methanesulfonyl-propoxy)-benzyl]-6-methyl-6,7-dihydro-5H-benzo[c]isoxazol-4-one]
0.15	1.1	CS(=O)(=O)CCCOc1ccc(Cc2onc3c2C(=O)CC(Cc2ccccc2)C3)cc1 (stereo not shown) [Cpd 49, 6-Benzyl-3-[4-(3-methanesulfonyl-propoxy)-benzyl]-6,7-dihydro-5H-benzo[c]isoxazol-4-one]
0.072	0.58	CS(=O)(=O)CCCOc1ccc(Cc2onc3c2C(=O)CC2(CCC2)C3)cc1 [Cpd 50, 3-[4-(3-Methanesulfonyl-propoxy)-benzyl]-6-6-spirocyclebutyl-6,7-dihydro-5H-benzo [c]isoxazol-4-one]
0.021	3.7	NC(=O)c1ccc(Cc2onc3c2C(=O)CC(CC2CC2)C3)cc1 (stereo not shown) [Cpd 51, 4-(6-Cyclopropylmethyl-4-oxo-4,5,6,7-tetrahydro-benzo[c]isoxazol-3-ylmethyl)-benzamide]
0.032	14	CC1(C)CC(=O)c2c(noc2Cc2ccc(C(=O)N3CCCC3)cc2)C1 [Cpd 52, 6,6-Dimethyl-3-[4-(pyrrolidine-1-carbonyl)-benzyl]-6,7-dihydro-5H-benzo[c]isoxazol-4-one]
0.042	6.7	CC1(C)CC(=O)c2c(noc2Cc2ccc(C(=O)N3CC[C@H](S(C)(=O)=O)C3)cc2)C1 [Cpd 53, 3-[4-((S)-3-Methanesulfonyl-pyrrolidine-l-carbonyl)-benzyl]-6,6-dimethyl-6,7-dihydro-5H-benzo[c]isoxazol-4-one]
0.058	2.5	CC1(C)CC(=O)c2c(noc2Cc2ccc(C(=O)NCCS(N)(=O)=O)cc2)C1 [Cpd 54, 4-(6,6-Dimethyl-4-oxo-4,5,6,7-tetrahydro-benzo[c]isoxazol-3-ylmethyl)-N-(2-sulfamoyl-ethyl)-benzamide]
0.068	5.4	CCN(CCO)C(=O)c1ccc(Cc2onc3c2C(=O)CC(C)(C)C3)cc1 [Cpd 55, 4-(6,6-Dimethyl-4-oxo-4,5,6,7-tetrahydro-benzo[c]isoxazol-3-ylmethyl)-N-ethyl-N-(2-hydroxy-ethyl)-benzamide]
0.069	11	COCCN(C)C(=O)c1ccc(Cc2onc3c2C(=O)CC(C)(C)C3)cc1 [Cpd 56, 4-(6,6-Dimethyl-4-oxo-4,5,6,7-tetrahydro-benzo[c]isoxazol-3-ylmethyl)-N-(2-methoxy-ethyl)-N-methyl-benzamide]
